From patent US20250235501A1, “Methods and Compositions for Treating or Preventing Neurological Injury or Neurological Disorders” (University of Connecticut, priority 2024, published 2025)

Test system: ERK1/2 and CREB activities (pERK1/2, pCREB)
Experiment: ERK1/2 and CREB activities in cultured neurons (WB)
Assay type: cell-based, mouse
Conditions: WT neurons pre-incubated with peptide overnight, vs control
Experimental: FIGS. 7F-7H show the effects of TAT-EE3 on ERK1/2 and CREB activities in cultured neurons isolated from gM2KO and nM2KO mice, and WT littermates. WT neurons were treated with TAT-EE3 or TAT-SC for overnight before the experiments. Neurons were incubated for 1 h before experiments with 1) control (PBS), 2) NMDA (10 μM) to activate synaptic and extrasynaptic NMDARs, and 3) 4-AP 2.5 mM plus biccuculine (Bic) 50 μM (4-AP/Bic) to activate synaptic NMDARs. […] FIGS. 7G and 7H show the quantification of the active CERB and ERK1/2 in each group under three different treatment conditions (***, p<0.001; ANOVA, Bonferroni's test; mean±SEM, n=3).
Mice pups at P0 were euthanized based on animal protocol. Whole brain was dissected out immediately and immersed in ice-cold Hank's Balanced Salt Solution (HBSS). Meninges were removed thoroughly, and tissue of different brain areas was taken based on purposes. Brain tissue was cut into small pieces and digested with 0.25% trypsin (Thermal Fisher Scientific, 15090-046) in HBSS at 37° C. for 20 min. Digestion solution was quickly removed, and tissue pellets are washed with Neurobasal® Medium (Thermal Fisher Scientific, 21103-049) for 3 times. Cells were resuspended with appropriate amount of Neurobasal® Medium supplemented with 2% B27® supplement (Thermal Fisher Scientific, 17504-044), 3% horse serum (Thermal Fisher Scientific, 16050114), 0.25% L-glutamine (Thermal Fisher Scientific, 25030-081) and 1% penicillin/streptomycin (Thermal Fisher Scientific, 15140-122). Isolated cells were counted and plated on coverslips pre-coated with poly-L-lysine (Sigma-Aldrich, P4707) at a density about 500×10^3 cells/cm2 for OGD and H2O2 treatment, and 100×10^3 cells/cm2 for current recording. Cytosine arabinoside (Sigma-Aldrich, C1768) was added to maintain a concentration at 1 μM to inhibit the proliferation of non-neuronal cells. 24 h after plating, culture medium was changed to Neurobasal® Medium supplemented with 2% B27® supplement, 0.25% L-glutamine and 1% penicillin/streptomycin. The concentration of Cytosine arabinoside (araC) was increased to 2 μM. Medium was changed every 3 days. OGD and H2O2 treatment was conducted at 7th day of culture, and current recording was conducted at 7th, 10th and 14th day of culture.
NP-40/Triton lysis buffer ([…], 1% Triton™ X-100, 150 mM NaCl, 1 mM EDTA, 50 mM Tris, pH=8.0) containing proteinase inhibitors and phosphatase inhibitors was used to lyse both cultured cells and frozen brain tissue. […] Protein concentration was measured using Pierce™ Rapid Gold BCA Protein Assay Kit.
30-50 μg of total protein was loaded and separated proteins were transferred to Nitrocellulose membranes. […] Band intensity was quantified using ImageJ software and normalized with appropriate loading controls.

[1] = 4-AP 2.5 mM plus bicuculline 50 μM 1 h

TAT-EE3: membrane permeable disrupting peptide, sequence YGRKKRRQRRREEDTDSSEEMLALAEE (SEQ ID NO: 4)
increased: pCREB level after 4-AP/Bic treatment [1] | pERK1/2 level after 4-AP/Bic treatment [1] | pCREB level after NMDA treatment (NMDA 10 μM 1 h) | pERK1/2 level after NMDA treatment (NMDA 10 μM 1 h)
